Biological target: T1, human DGAT1 (Homo sapiens, UniProt O75907)
T1 construct: made in house; host or cells: Sf9 insect cells (microsomes)
T1 sequence (O75907 1-488): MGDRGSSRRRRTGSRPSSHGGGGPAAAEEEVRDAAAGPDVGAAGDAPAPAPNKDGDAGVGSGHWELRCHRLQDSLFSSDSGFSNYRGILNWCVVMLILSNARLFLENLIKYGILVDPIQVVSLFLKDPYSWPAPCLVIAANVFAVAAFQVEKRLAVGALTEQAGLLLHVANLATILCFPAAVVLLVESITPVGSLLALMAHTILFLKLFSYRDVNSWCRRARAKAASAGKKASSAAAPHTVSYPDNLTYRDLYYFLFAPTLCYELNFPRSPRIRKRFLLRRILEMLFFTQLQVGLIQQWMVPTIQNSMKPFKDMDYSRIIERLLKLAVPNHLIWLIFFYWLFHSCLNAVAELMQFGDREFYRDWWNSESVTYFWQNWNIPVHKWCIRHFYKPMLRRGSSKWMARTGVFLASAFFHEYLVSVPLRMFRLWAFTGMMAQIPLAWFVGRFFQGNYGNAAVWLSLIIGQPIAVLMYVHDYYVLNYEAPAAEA
Assay: in vitro DGAT1 inhibition assay (microsomes, [14C]-palmitoyl-CoA, wheat germ agglutinin beads)
Type: biochemical
Settings: human DGAT1 enzyme expressed in Sf9 insect cells, 2 hours at room temperature
Experimental: The assay used to determine the DGAT inhibitory activity of the inventive compounds is described below:
The in vitro assay to identify DGAT1 inhibitors uses human DGAT1 enzyme expressed in Sf9 insect cells prepared as microsomes. The reaction was initiated by the addition of the combined substrates 1,2-dioleoyl-sn-glycerol and [^14C]-palmitoyl-CoA and incubated with test compounds and microsomal membranes for 2 hours at room temperature. The assay was stopped by adding 0.5 mg wheat germ agglutinin beads in assay buffer with 1% Brij-35 and 1% 3-cholamidopropyldimethyl-ammonio-1-propane sulfonate. Plates were sealed with TopSeal and incubated for 18 hours to allow the radioactive triglyceride product to come into proximity with the bead. Plates were read on a TopCount instrument.
Percent inhibition was calculated as the percent of (test compound inhibition minus non-specific binding) relative to (total binding minus non-specific binding). IC50 values were determined by curve fitting the data to a Sigmoidal dose-response in GraphPad Prism utilizing the following equation:
Y=A+(B−A)/(1+10̂((LogIC50−X))),
where A and B are the bottom and top of the curve (highest and lowest inhibition), respectively, and X is the logarithm of concentration.

SMILES | IC50
C[C@@H]1CN(C(=O)Nc2ccccc2)c2ccc(-c3ccc([C@H]4CC[C@H](CC(=O)O)CC4)cc3)cc2O1 [B-18 enantiomer A, 2-((1r,4r)-4-(4-(2-methyl-4-(phenylcarbamoyl)-3,4-dihydro-2H-benzo[b][1,4]oxazin-7-yl)phenyl)cyclohexyl)acetic acid] | 43 nM
CCc1ccccc1NC(=O)N1C[C@@H](C)Oc2cc(-c3ccc([C@H]4CC[C@H](CC(=O)O)CC4)cc3)ccc21 [C-81 enantiomer A, 2-((1r,4r)-4-(4-(4-(2-ethylphenylcarbamoyl)-2-methyl-3,4-dihydro-2H-benzo[b][1,4]oxazin-7-yl)phenyl)cyclohexyl)acetic acid] | 58 nM
CCCCCCCNC(=O)N1CC(CC)Oc2cc(-c3ccc([C@H]4CC[C@H](CC(=O)O)CC4)cc3)ccc21 (stereo partly shown) [Example C-150, 2-((1r,4r)-4-(4-(2-ethyl-4-(heptylcarbamoyl)-3,4-dihydro-2H-benzo[b][1,4]oxazin-7-yl)phenyl)cyclohexyl)acetic acid] | 83 nM
CCCc1ccccc1NC(=O)c1ccnc2cc(-c3ccc([C@H]4CC[C@H](CC(=O)O)CC4)cc3)ccc12 [Example C-129, 2-((1r,4r)-4-(4-(4-(2-propylphenylcarbamoyl)quinolin-7-yl)phenyl)cyclohexyl)acetic acid] | 94 nM
Cc1cc(C(=O)Nc2ccccc2)c2ccc(-c3ccc([C@H]4CC[C@H](CC(=O)O)CC4)cc3)cc2n1 [Example C-134, 2-((1r,4r)-4-(4-(2-methyl-4-(phenylcarbamoyl)quinolin-7-yl)phenyl)cyclohexyl)acetic acid] | 28 nM
CC(C)c1ccccc1NC(=O)c1ccnc2cc(-c3ccc([C@H]4CC[C@H](CC(=O)O)CC4)cc3)ccc12 [Example C-125, 2-((1r,4r)-4-(4-(4-(2-isopropylphenylcarbamoyl)quinolin-7-yl)phenyl)cyclohexyl)acetic acid] | 72 nM
CC1CN(C(=O)Nc2ccc(F)cc2C(F)(F)F)c2ccc(-c3ccc([C@H]4CC[C@H](CC(=O)O)CC4)cc3)cc2O1 (single isomer, unassigned) [C-78 enantiomer A, 2-((1r,4r)-4-(4-(4-(4-fluoro-2-(trifluoromethyl)phenylcarbamoyl)-2-methyl-3,4-dihydro-2H-benzo[b][1,4]oxazin-7-yl)phenyl)cyclohexyl)acetic acid] | 79 nM
O=C(O)C[C@H]1CC[C@H](c2ccc(-c3ccc4c(C(=O)Nc5ccccc5)ccnc4c3)cc2)CC1 [Example B-48, 2-((1r,4r)-4-(4-(4-(phenylcarbamoyl)quinolin-7-yl)phenyl)cyclohexyl)acetic acid] | 83 nM
Cc1cc(C(=O)NCCCCc2ccccc2)c2ccc(-c3ccc([C@H]4CC[C@H](CC(=O)O)CC4)cc3)cc2n1 [Example C-141, 2-((1r,4r)-4-(4-(2-methyl-4-(4-phenylbutylcarbamoyl)quinolin-7-yl)phenyl)cyclohexyl)acetic acid] | 15 nM
O=C(O)C[C@H]1CC[C@H](c2ccc(-c3ccc4c(c3)OCCN4C(=O)Nc3ccc(F)cc3C(F)(F)F)cc2)CC1 [Example C-6, 2-((1r,4r)-4-(4-(4-(4-fluoro-2-(trifluoromethyl)phenylcarbamoyl)-3,4-dihydro-2H-benzo[b][1,4]oxazin-7-yl)phenyl)cyclohexyl)acetic acid] | 20 nM
Cc1cc(C(=O)NCCc2ccccc2)c2ccc(-c3ccc([C@H]4CC[C@H](CC(=O)O)CC4)cc3)cc2n1 [Example C-139, 2-((1r,4r)-4-(4-(2-methyl-4-(phenethylcarbamoyl)quinolin-7-yl)phenyl)cyclohexyl)acetic acid] | 61 nM
CCCCCCCNC(=O)N1CC(C)Oc2cc(-c3ccc([C@H]4CC[C@H](CC(=O)O)CC4)cc3)ccc21 (stereo partly shown) [Example C-116, 2-((1r,4r)-4-(4-(4-(heptylcarbamoyl)-2-methyl-3,4-dihydro-2H-benzo[b][1,4]oxazin-7-yl)phenyl)cyclohexyl)acetic acid] | 71 nM
CCCCCCNC(=O)N1CC(C)Oc2cc(-c3ccc([C@H]4CC[C@H](CC(=O)O)CC4)cc3)ccc21 (stereo partly shown) [Example C-113, 2-((1r,4r)-4-(4-(4-(hexylcarbamoyl)-2-methyl-3,4-dihydro-2H-benzo[b][1,4]oxazin-7-yl)phenyl)cyclohexyl)acetic acid] | 82 nM
